# Reference: patent EP1351977B1, “ANTIMICROBIAL PSEUDOPEPTIDES” (INSTITUT NATIONAL DE LA RECHERCHE AGRONOMIQUE (INRA), priority 2001, dated 2004)
# Ends that are not written are not given here.
# What was measured:
# Format in all cases: cell-based
# [1] = test system: Salmonella sp.; test: Bacterial growth inhibition test in Petri dish (solid medium), MIC; conditions: MIC extrapolated from inhibition diameter vs log10 concentration
# Experimental: Deux tests ont été utilisés pour mesurer l'activité antibactérienne des pseudopeptides, un test d'inhibition de la croissance bactérienne en microplaques (de 96 puits) en milieu liquide et un test d'inhibition de la croissance bactérienne en boîte de Pétri en milieu solide. • * Test en microplaques: La culture bactérienne à tester est prélevée en phase exponentielle, puis diluée au 1/500^ème dans du milieu liquide TSB frais. Chaque puits de la microplaque est rempli avec 100 µl de suspension bactérienne diluée. Dans le premier puits, 100 µl de l'échantillon de pseudopeptide à tester est ajouté à la suspension bactérienne, puis l'échantillon est dilué de 2 en 2 en transférant d'un puits à l'autre 100 µl de suspension. La lecture de la microplaque se fait en mesurant la densité optique à […] (DO600nm) après 24h d'incubation à 28°C ou 37°C selon les bactéries cibles. Connaissant la concentration en pseudopeptide de l'échantillon de départ, ce test permet de déterminer la valeur de la CMI (Concentration Minimale d'Inhibition de la croissance bactérienne). Dans ce test, la CMI correspond à la concentration de l'échantillon pour lequel la DO600nm est inférieure à celle du témoin de culture. • * Test en boîte de Pétri: La culture bactérienne à tester est prélevée en phase exponentielle, puis incorporée à 10 ml d'une gélose dite "sous-couche" (Agarose 1% poids/vol; NaCl 100 mM; Trypcase 0.03 % poids/vol; Tampon phosphate 10 mM pH7.4) à raison de 2.10^5 bactéries/ml. Le mélange est coulé dans une boîte de Pétri ordinaire. 9 puits d'environ 10 µl de volume sont formés dans la "sous-couche" à l'aide d'un embout de pipette stérile de 10 ml. Ces puits sont remplis avec une série de dilutions des pseudopeptides à tester (concentration initiale 500 µg/ml, et dilution de deux en deux jusqu'à 1,95 µg/ml). Après diffusion à température ambiante pendant 2h, une gélose dite "sur-couche" (Agarose 1% wt/vol; Trypcase 6 % wt/vol; Tampon phosphate 10 mM pH7.4) est ajoutée sur la sous-couche à raison de 5 à 10 ml. Après solidification, l'ensemble est mis à incuber pendant une nuit. Le diamètre d'inhibition de la culture bactérienne autour de chaque puits est mesuré en mm; il existe une relation linéaire entre le diamètre d'inhibition et le log10 de la concentration en pseudopeptide qui permet de déterminer par extrapolation la valeur de la CMI.
# Une première série de résultats a été obtenue en utilisant le test en boîte de Pétri vis-à-vis de bactéries non pathogènes issues de la collection de Travaux pratiques du laboratoire de Pathologie Comparée de l'Université de Montpellier (France). Dans cette série, les pseudopeptides des pics 5, 7, 8,10 et 11 ont été testés (Tableau 4).
# [2] = test system: bactériophage lambda; test: Antiviral test, lysis plaque method in Top-Agar on E. coli SURE
# Experimental: L'activité antivirale des pseudopeptides selon l'invention a été démontrée vis-à-vis du bactériophage lambda. Le bactériophage λ-ZAP est naturellement lytique sur la souche E. coli SURE (Stratagène). Cette activité lytique est mesurable par la méthode des plages de lyse en gélose Top-Agar. 2 µl d'une suspension de virus à 3,5 .10^5 pfu/ml dans du tampon SM ont été mis en présence de 2 µl du pseudopeptides compris dans le pic 8 à 0,5 mg/ml dans de l'eau pure. Après 15 min d'incubation à 37°C, la suspension est mélangée à 3,5 ml de Top-Agar pré-ensemencée avec E. coli SURE à 2 .10^5 cfu/ml. La concentration de pseudopeptide dans la gélose Top-Agar est inférieure à la CMI vis-à-vis de E. coli SURE. Le mélange est coulé en boîte de Pétri puis mis à incuber à 37°C pendant 12h. Le résultat est donné dans le tableau 6.
# [3] = test system: Alternaria brassicae; test: Antifungal growth inhibition test in liquid medium
# [4] = test system: Serratia entomophila; test: Bacterial growth inhibition test in Petri dish (solid medium), MIC; conditions: MIC extrapolated from inhibition diameter vs log10 concentration
# [5] = test system: Staphylococcus epidermidis; test: as above; conditions: MIC extrapolated from inhibition diameter vs log10 concentration
# [6] = test system: Phytophthora myc; test: Antifungal growth inhibition test in liquid medium
# From the text: (§1) Les composés des pics 5, 7 et 8 de la figure 1 ont été testées vis-à-vis d'un ensemble de champignons phytopathogènes. Trois doses (10, 20, et 40 ppm) ont été employées pour chacun des composés.
# (§2) L'activité antifongique a été détectée par un test d'inhibition de croissance en milieu liquide. Les spores des champignons à tester ont été mises en suspension dans un milieu de culture de type "Pomme de terre-Glucose". De préférence, on utilise 12 g de milieu Potato Dextrose Broth (Difco) pour 1 litre d'eau déminéralisée. Deux antibiotiques ont été rajoutés au milieu de culture: la tétracycline (concentration finale de 10 µg/ml) et la céfotaxime (100 µg/ml). On dépose 10 µl de chaque composé à tester dans des plaques de microtitration en présence de 90 µl de milieu de culture contenant les spores (à une concentration finale de 10^4 spores/ml). L'incubation a été réalisée en chambre humide à 30°C durant 48 heures. La croissance fongique a été observée au microscope photonique après 24 h et quantifiée après 48 heures par mesure de l'absorbance à 600 nm à l'aide d'un spectrophotomètre lecteur de plaque de microtitration. L'activité des composés contre les champignons phytopathogènes est exprimée par un pourcentage d'inhibition de croissance correspondant à 100 x (1 - absorbance avec produit/ absorbance du témoin sans produit), l'absorbance étant mesurée à 600 nm, 5 jours après le début de l'expérience.
# [7] = test system: Fusarium culmorum sp; test: Antifungal growth inhibition test in liquid medium
# From the text: as §1, §2
substance,measurement,setting,value
Composé 8: pseudopeptide du pic n° 8 de Xenorhabdus nematophilus F1; Famille 1: Lys Lys Lys Lys Lys Gly; 1066 Da; structure en Figure 2 (KKKKKG; also: pseudopeptide modifications),CMI,[1],30 µg/mL
same,inhibition du cycle lytique du bactériophage lambda,[2]; 250 µg/ml,> 95%
same,Nbre de pfu/boîte,"[2]; in presence of pseudopeptide, 15 min pre-incubation at 37°C with phage, control without pseudopeptide 700 ±50",40 ± 5 pfu/boîte
same,pourcentage d'inhibition de croissance,[3]; 10 ppm,82%
same,pourcentage d'inhibition de croissance,[3]; 20 ppm,82%
same,pourcentage d'inhibition de croissance,[3]; 40 ppm,83%
same,CMI,[4],30 µg/mL
same,CMI,[5],30 µg/mL
same,pourcentage d'inhibition de croissance,[6]; 10 ppm,76%
same,pourcentage d'inhibition de croissance,[6]; 20 ppm,78%
same,pourcentage d'inhibition de croissance,[6]; 40 ppm,77%
same,pourcentage d'inhibition de croissance,[7]; 10 ppm,96%
same,pourcentage d'inhibition de croissance,[7]; 20 ppm,96%
same,pourcentage d'inhibition de croissance,[7]; 40 ppm,96%
